These results are taken from patent publication US12492188B2, “1H-benzo[D]imidazole derivatives as TLR9 inhibitors for the treatment of fibrosis” (BRISTOL-MYERS SQUIBB COMPANY, priority 2020, dated 2025).

Like-named read-outs stand apart in the source and are kept apart here.

What all share (type): cell-based
One assay deals with T1, human TLR7 (Homo sapiens, UniProt Q9NYK1).
T1 construct: host or cells: HEK-Blue cells (HEK293-derived reporter line)
T1 sequence (Q9NYK1 27-1049): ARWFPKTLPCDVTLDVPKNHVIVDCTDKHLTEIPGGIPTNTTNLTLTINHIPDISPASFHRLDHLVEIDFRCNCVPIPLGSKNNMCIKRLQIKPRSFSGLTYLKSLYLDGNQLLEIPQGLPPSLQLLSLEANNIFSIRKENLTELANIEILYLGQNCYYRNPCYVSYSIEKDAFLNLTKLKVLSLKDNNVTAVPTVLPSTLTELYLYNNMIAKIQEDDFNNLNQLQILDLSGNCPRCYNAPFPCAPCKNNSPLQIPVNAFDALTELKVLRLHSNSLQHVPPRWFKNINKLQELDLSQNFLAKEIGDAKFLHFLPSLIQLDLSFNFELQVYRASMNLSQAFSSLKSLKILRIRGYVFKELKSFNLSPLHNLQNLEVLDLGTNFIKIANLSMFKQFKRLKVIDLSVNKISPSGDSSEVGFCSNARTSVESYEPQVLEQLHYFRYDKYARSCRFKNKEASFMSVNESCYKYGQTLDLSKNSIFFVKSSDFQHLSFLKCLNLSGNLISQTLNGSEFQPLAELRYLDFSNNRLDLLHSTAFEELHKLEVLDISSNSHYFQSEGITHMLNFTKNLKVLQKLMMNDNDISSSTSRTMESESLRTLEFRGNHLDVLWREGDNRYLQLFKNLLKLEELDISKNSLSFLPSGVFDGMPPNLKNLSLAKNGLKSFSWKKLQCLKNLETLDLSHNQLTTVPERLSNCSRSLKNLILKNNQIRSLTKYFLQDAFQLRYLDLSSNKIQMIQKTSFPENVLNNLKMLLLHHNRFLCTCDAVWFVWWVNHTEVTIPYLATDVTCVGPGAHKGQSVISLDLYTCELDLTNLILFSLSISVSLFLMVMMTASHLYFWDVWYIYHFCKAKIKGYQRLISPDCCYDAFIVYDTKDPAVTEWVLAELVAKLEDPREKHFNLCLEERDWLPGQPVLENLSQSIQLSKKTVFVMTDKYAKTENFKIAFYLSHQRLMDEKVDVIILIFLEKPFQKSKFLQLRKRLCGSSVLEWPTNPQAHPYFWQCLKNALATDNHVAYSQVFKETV
As to the kind of experiment: TLR7 inhibition reporter assay (HEK-Blue cells, secreted embryonic alkaline phosphatase reporter). The conditions noted are these: HEK-Blue cells overexpressing human TLR7, stimulated with gardiquimod 7.5 μM; read-out: TLR 7 IC50. A digest of the protocol:
(§1)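 HEK-Blue cells expressing human TLR7, TLR8 or TLR9 with an NF-κB/AP-1-driven SEAP reporter were pretreated with compound (0.05 nM–50 μM final) for 30 min at room temperature. Agonists were gardiquimod 7.5 μM for TLR7, R848 15.9 μM for TLR8 and ODN2006 5 nM for TLR9. SEAP was read after 22 h at 37 °C, and inhibition was calculated relative to agonist-plus-DMSO and known-inhibitor controls.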

The target of another assay is T2, human TLR8 (Homo sapiens, UniProt Q9NR97).
T2 construct: host or cells: HEK-Blue cells (HEK293-derived reporter line)
T2 sequence (Q9NR97 27-1041): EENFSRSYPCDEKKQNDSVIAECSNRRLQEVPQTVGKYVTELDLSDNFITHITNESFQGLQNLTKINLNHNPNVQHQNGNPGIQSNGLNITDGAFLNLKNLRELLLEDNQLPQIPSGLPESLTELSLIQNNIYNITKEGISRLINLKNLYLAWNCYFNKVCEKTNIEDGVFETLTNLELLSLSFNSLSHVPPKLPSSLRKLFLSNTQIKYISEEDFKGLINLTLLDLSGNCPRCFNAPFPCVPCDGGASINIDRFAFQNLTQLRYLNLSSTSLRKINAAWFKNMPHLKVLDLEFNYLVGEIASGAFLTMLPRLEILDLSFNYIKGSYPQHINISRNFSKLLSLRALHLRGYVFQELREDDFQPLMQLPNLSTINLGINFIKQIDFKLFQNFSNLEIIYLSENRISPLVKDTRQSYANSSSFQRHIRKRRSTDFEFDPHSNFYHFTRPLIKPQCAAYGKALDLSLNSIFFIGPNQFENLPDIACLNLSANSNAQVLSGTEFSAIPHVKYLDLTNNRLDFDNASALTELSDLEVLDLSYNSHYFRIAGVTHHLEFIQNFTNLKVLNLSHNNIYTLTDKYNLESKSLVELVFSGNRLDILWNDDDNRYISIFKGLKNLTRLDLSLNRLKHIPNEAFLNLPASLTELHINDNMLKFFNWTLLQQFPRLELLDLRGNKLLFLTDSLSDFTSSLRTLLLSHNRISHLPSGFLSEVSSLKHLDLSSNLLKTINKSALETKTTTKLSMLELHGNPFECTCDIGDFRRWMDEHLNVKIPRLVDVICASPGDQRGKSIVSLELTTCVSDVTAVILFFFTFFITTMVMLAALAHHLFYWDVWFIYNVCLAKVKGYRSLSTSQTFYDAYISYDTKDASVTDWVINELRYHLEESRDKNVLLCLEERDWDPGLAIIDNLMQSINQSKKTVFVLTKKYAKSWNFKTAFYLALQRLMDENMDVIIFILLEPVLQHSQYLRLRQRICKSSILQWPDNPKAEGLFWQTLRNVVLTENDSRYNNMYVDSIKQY
As to the kind of experiment: TLR8 inhibition reporter assay (HEK-Blue cells, secreted embryonic alkaline phosphatase reporter). Conditions: HEK-Blue cells overexpressing human TLR8, stimulated with R848 15.9 μM; read-out: TLR 8 IC50. A digest of the protocol: as §1
(In general: In a reporter assay the amount or activity of a reporter protein is the signal.)

A further assay concerns the target T3, human TLR9 (Homo sapiens, UniProt Q9NR96).
T3 construct: host or cells: HEK-Blue cells (HEK293-derived reporter line)
T3 sequence (Q9NR96 26-1032): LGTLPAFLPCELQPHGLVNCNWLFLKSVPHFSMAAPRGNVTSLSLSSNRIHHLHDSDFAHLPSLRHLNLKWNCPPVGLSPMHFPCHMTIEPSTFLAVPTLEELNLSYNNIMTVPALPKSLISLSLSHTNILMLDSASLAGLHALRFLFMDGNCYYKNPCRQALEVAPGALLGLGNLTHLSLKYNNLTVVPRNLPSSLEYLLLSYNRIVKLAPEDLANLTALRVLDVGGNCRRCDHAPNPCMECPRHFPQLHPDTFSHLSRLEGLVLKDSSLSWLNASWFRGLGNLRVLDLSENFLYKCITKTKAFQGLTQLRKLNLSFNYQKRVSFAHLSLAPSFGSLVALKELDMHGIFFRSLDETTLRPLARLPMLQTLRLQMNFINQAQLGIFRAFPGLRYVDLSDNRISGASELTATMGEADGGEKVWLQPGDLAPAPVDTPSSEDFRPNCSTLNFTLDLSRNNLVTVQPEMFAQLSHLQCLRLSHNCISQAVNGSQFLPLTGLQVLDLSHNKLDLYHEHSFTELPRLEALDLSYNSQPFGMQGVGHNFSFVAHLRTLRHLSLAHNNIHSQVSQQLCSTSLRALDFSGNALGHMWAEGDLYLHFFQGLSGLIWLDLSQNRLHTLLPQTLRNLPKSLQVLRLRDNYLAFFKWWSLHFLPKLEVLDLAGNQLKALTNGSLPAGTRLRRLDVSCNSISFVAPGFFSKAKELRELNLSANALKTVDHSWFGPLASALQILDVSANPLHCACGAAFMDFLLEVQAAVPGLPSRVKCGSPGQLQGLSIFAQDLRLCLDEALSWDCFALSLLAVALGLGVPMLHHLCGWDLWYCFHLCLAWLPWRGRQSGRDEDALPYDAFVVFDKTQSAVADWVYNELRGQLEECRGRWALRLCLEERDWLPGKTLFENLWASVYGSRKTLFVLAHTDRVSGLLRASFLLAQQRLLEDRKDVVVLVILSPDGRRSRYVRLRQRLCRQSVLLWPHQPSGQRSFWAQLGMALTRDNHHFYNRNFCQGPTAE
As to the kind of experiment: TLR9 inhibition reporter assay (HEK-Blue cells, secreted embryonic alkaline phosphatase reporter). A digest of the protocol:
as §1

Setting [1] is: HEK-Blue cells overexpressing human TLR9, stimulated with ODN2006 5 nM, read-out: TLR 9 IC50.
Where [2] appears, read: HEK-Blue human TLR9 reporter cells.

As to `Cn1c(-c2ccc(S(C)(=O)=O)cc2)nc2ccc(C3CCN(C4CCCN(C5COC5)CC4)CC3)c(F)c21` (stereo not shown) [Example 315, 7-fluoro-1-methyl-2-(4-(methylsulfonyl)phenyl)-6-(1-(1-(oxetan-3-yl)azepan-4-yl)piperidin-4-yl)-1H-benzo[d]imidazole], the IC50 on human TLR7 was 6.2 µM; at human TLR8, above 50 µM; on human TLR9 (setting [1]), 147 nM; against human TLR9 (setting [2]) it was 150 nM.
The corresponding values for `Cn1c(-c2ccc(S(C)(=O)=O)cc2)nc2ccc(C3CCN(C4CCCN(C5CCOCC5)CC4)CC3)c(F)c21` (stereo not shown) [Example 316, 7-fluoro-1-methyl-2-(4-(methylsulfonyl)phenyl)-6-(1-(1-(tetrahydro-2H-pyran-4-yl)azepan-4-yl)piperidin-4-yl)-1H-benzo[d]imidazole] are above 50 µM, 16.7 µM, 14 nM and 14 nM.
The corresponding values for `Cc1cc(C2CCN(C3CCN(c4ccccc4)CC3)CC2)cc2c1nc(-c1ccc(S(C)(=O)=O)cc1)n2C` [Example 318, 1,4-dimethyl-2-(4-(methylsulfonyl)phenyl)-6-(1′-phenyl-[1,4′-bipiperidin]-4-yl)-1H-benzo[d]imidazole] are 10.2 µM, above 50 µM, 269 nM and 270 nM.
For the molecule `CC(C)CN1CCC(N2CCC(c3cc(F)c4nc(-c5ccc(S(C)(=O)=O)cc5)n(C5CC5)c4c3)CC2)CC1` [Example 319, 1-cyclopropyl-4-fluoro-6-(1′-isobutyl-[1,4′-bipiperidin]-4-yl)-2-(4-(methylsulfonyl)phenyl)-1H-benzo[d]imidazole], the 50% inhibitory concentration (IC50) was 1.4 µM on human TLR7, above 50 µM at human TLR8, 94 nM on human TLR9 (setting [1]) and 94 nM on human TLR9 (setting [2]).
As for `CS(=O)(=O)c1ccc(-c2nc3c(F)cc(C4CCN(C5CCN(C6CCOCC6)CC5)CC4)cc3n2C2CC2)cc1` [Example 321, 1-cyclopropyl-4-fluoro-2-(4-(methylsulfonyl)phenyl)-6-(1′-(tetrahydro-2H-pyran-4-yl)-[1,4′-bipiperidin]-4-yl)-1H-benzo[d]imidazole], the concentration for half-maximal inhibition (IC50) was 1.9 µM at human TLR7, above 50 µM on human TLR8, 36 nM at human TLR9 (setting [1]) and 36 nM against human TLR9 (setting [2]).
On to `CS(=O)(=O)c1ccc(-c2nc3c(F)cc(C4CCN(C5CC6CCC(C5)N6C5CCOCC5)CC4)cc3n2C2CC2)cc1` (stereo not shown) [Example 328, 1-cyclopropyl-4-fluoro-2-(4-(methylsulfonyl)phenyl)-6-(1-(8-(tetrahydro-2H-pyran-4-yl)-8-azabicyclo[3.2.1]octan-3-yl)piperidin-4-yl)-1H-benzo[d]imidazole], for which the IC50 on human TLR7 was 2.3 µM; at human TLR8 it was above 50 µM; on human TLR9 (setting [1]), 12 nM; at human TLR9 (setting [2]) it was 12 nM.
`CS(=O)(=O)c1ccc(-c2nc3c(F)cc(C4CCN(C5CC6CCC(C5)N6C5CCOCC5)CC4)cc3n2C2CC2)cc1` (stereo not shown) [Example 329, 1-cyclopropyl-4-fluoro-2-(4-(methylsulfonyl)phenyl)-6-(1-(8-(tetrahydro-2H-pyran-4-yl)-8-azabicyclo[3.2.1]octan-3-yl)piperidin-4-yl)-1H-benzo[d]imidazole]: the concentration for half-maximal inhibition (IC50) at human TLR7 is 1.2 µM; on human TLR8 it was above 50 µM; on human TLR9 (setting [1]), 28 nM; at human TLR9 (setting [2]) it was 28 nM.
Take `Cc1cc(C2CCN(C3CC4CCC(C3)N4C(C)C)CC2)cc2[nH]c(-c3ccc(S(C)(=O)=O)cc3)nc12` (stereo not shown) [Example 332, 6-(1-(8-isopropyl-8-azabicyclo[3.2.1]octan-3-yl)piperidin-4-yl)-4-methyl-2-(4-(methylsulfonyl)phenyl)-1H-benzo[d]imidazole]: the IC50 is above 50 µM on human TLR7, above 50 µM on human TLR8, 172 nM on human TLR9 (setting [1]) and 170 nM on human TLR9 (setting [2]).
For the molecule `Cc1cc(C2CCN(C3CC4CCC(C3)N4C(C)C)CC2)cc2[nH]c(-c3ccc(S(C)(=O)=O)cc3)nc12` (stereo not shown) [Example 333, 6-(1-(8-isopropyl-8-azabicyclo[3.2.1]octan-3-yl)piperidin-4-yl)-4-methyl-2-(4-(methylsulfonyl)phenyl)-1H-benzo[d]imidazole], the half-maximal inhibitory concentration (IC50) on human TLR7 was above 50 µM; at human TLR8, above 50 µM; at human TLR9 (setting [1]), 329 nM; against human TLR9 (setting [2]) it was 330 nM.
`Cc1cc(C2CCN(C3CC4CCC(C3)N4C3CCC3)CC2)cc2[nH]c(-c3ccc(S(C)(=O)=O)cc3)nc12` (stereo not shown) [Example 334, 6-(1-(8-cyclobutyl-8-azabicyclo[3.2.1]octan-3-yl)piperidin-4-yl)-4-methyl-2-(4-(methylsulfonyl)phenyl)-1H-benzo[d]imidazole]: the IC50 at human TLR7 is above 50 µM; on human TLR8 it was above 50 µM; on human TLR9 (setting [1]), 296 nM; against human TLR9 (setting [2]) it was 300 nM.

As a reminder, the IC50 is the concentration that inhibits the measured activity by half.
